Results: patent US11191855B2, “1,7-diaryl-1,6-heptadiene-3,5-dione derivatives, methods for the production and use thereof” (UNIVERSITÄTSKLINIKUM REGENSBURG, priority 2015, dated 2021)
Counter-ions that a name gives are not always drawn. Like-named read-outs stand apart in the source and are kept apart here. Marks after values point to notes of the source that are not given here.

System: E. coli ATCC 25922
Assay: Phototoxicity test c.1) (LED array 430-435 nm, CFU count by Miles and Misra)
Format: cell-based, Escherichia coli
Details: for log reduction at 10 µM / log reduction at 50 µM: Escherichia coli, ATCC25922, light or radiation study; for log reduction at 10 µM: read-out: Effectiveness against E. Coli: Reduction in CFU in log10 at concentration of 10 μM; for log reduction at 50 µM: read-out: Effectiveness against E. Coli: Reduction in CFU in log10 at concentration of 50 μM
Protocol: A sample of the bacterial cell Staphylococcus. aureus (ATCC number: 25923) or Escherichia. coli (ATCC number: 25922) was removed from a cryo-freeze culture and cultured under aerobic conditions at 37° C. and 175 rpm overnight in an orbital shaker (MAXQ4000, Thermo Scientific, Dubuque, Iowa, USA). Growth was carried out in 20 mL Todd-Hewitt broth (Carl Roth, Karlsruhe, Germany) supplemented with 0.3% of yeast extract (AppliChem, Darmstadt, Germany).
Subsequently, dilutions (0, 5, 10, […] and 20% v/v of the overnight culture) and their absorptions were measured at 600 nm in triplicate for 100 μL (Infinite 200 M Pro, Tecan, Mannedorf, Switzerland). A calibration graph (Microsoft Excel) was used to calculate the volume which was required to produce 20 mL of a culture with an absorption of 0.05 at 600 nm. The volume calculated for the overnight culture was topped up with Todd-Hewitt broth (composition as above) to 20 mL and incubated for two hours at 37° C. with constant movement (175 rpm, MAXQ4000). The cultures were then in the exponential growth phase; the absorption at 600 nm was between 0.3 and 0.45.
A 2-hour culture was divided into 1800 μL aliquots. After centrifuging at 20° C., 830 rcf, 5 min (5417R centrifuge, Eppendorf, Hamburg, Germany), the pellets were re-suspended in phosphate buffer (Dulbeccos' Modified Phosphate Saline, DPBS, Sigma-Aldrich) with either 10 or 50 μM of the corresponding photosensitizer, wherein the final volume was kept at 1800 μL.
The solutions obtained were immediately incubated on the orbital shaker (see above for parameters) for 5 or 25 minutes.
Three controls were run at the same time for each photosensitizer. The “light only” control contained DPBS without photosensitizer. The “photosensitizer only” (“PS only”) control was incubated like the PDI samples, but not irradiated and kept strictly in darkness. A further control (double negative, “Co−/−”), received neither light nor photosensitizer.
After the incubation, duplicates of the samples (500 μL each) were transferred into a 24-well microtitre plate (Cellstar, Greiner Bio-One, Frickenhausen, Germany). The “PS only” and “Co −/−” samples were placed in their own microtitre plate which was packed in aluminium foil so as to be lightproof.
The irradiation was carried out under constant shaking (MTS4, IKA, Staufen, Germany, 175 rpm) from below on a LED array with maximum homogeneity of the lighting surface. All of the controls were shaken in the same manner. The technical data for the light source are shown in Table 2; the total dose of light applied was 33.8 J/cm^2.
The determination of the colony forming units (CFU) was carried out in accordance with the method published by Miles and Misra (Miles, A A; Misra, S S, Irwin, J O (1938 Nov.). “The estimation of the bactericidal power of the blood” The Journal of hygiene 38 (6): 732-49). In this regard, serial dilutions (1:10) of the corresponding bacterial suspension were produced in DPBS. 5×10 μL of each bacterial dilution was then dripped onto Todd-Hewitt plates (with broth, additional 1.5% agar (Agar-Agar, Kobe I, Roth, Karlsruhe, Germany) and incubated at 37° C. for 24 h. Next, the number of surviving colony forming units was determined. All of the tests were carried out four times.
The photosensitizers were tested against the bacterial strain E. coli ATCC 25922. FIGS. 1-20 show the measured surviving colony forming units (CFU).
The average reference control (arithmetic mean with standard deviation) (no light, no PS) was 3.6×10^8/mL. The logarithmic reduction after illumination is shown with respect to the reference control. The respective upper value, indicated by a *, refers to an incubation period of 5 min and the respectively lower value, indicated by a #, refers to an incubation period of 25 min.

[1] = 5 min, 10 μM, incubation period 5 min (upper value, *), light dose 33.8 J/cm^2, approx. 435 nm, 60 min at 9.4 mW/cm^2, vs reference control
[2] = 5 min, 50 μM, incubation period 5 min (upper value, *), light dose 33.8 J/cm^2, approx. 435 nm, 60 min at 9.4 mW/cm^2, vs reference control
[3] = 25 min, 10 μM, incubation period 25 min (lower value), light dose 33.8 J/cm^2, approx. 435 nm, 60 min at 9.4 mW/cm^2, vs reference control
[4] = 25 min, 50 μM, incubation period 25 min (lower value), light dose 33.8 J/cm^2, approx. 435 nm, 60 min at 9.4 mW/cm^2, vs reference control
[5] = 10 μM, incubation period 5 min (upper value, *), light dose 33.8 J/cm^2, approx. 435 nm, 60 min at 9.4 mW/cm^2, vs reference control
[6] = 10 μM, incubation period 25 min (lower value), light dose 33.8 J/cm^2, approx. 435 nm, 60 min at 9.4 mW/cm^2, vs reference control
[7] = 50 μM, incubation period 5 min (upper value, *), light dose 33.8 J/cm^2, approx. 435 nm, 60 min at 9.4 mW/cm^2, vs reference control
[8] = 50 μM, incubation period 25 min (lower value), light dose 33.8 J/cm^2, approx. 435 nm, 60 min at 9.4 mW/cm^2, vs reference control

Row | Compound | log reduction at 10 µM [1] | log reduction at 50 µM [2] | log reduction at 10 µM [3] | log reduction at 50 µM [4] | further results
1 | NCCOc1ccc(/C=C/C(=O)CC(=O)/C=C/c2ccc(OCCN)cc2)cc1 [Curcumin 0 hydrochloride] | > 4 | > 6 | > 5 | > 6 | 
2 | COc1cc(OCCN)ccc1/C=C/C(=O)CC(=O)/C=C/c1ccc(OCCN)cc1OC [Curcumin 01b hydrochloride] | > 2 | > 5 | > 3 | > 7 | 
3 | COc1cc(/C=C/C(=O)CC(=O)/C=C/c2cc(I)c(OCCN)c(OC)c2)cc(I)c1OCCN [Curcumin 01c hydrochloride] | > 2 | > 3 | > 2 | > 4 | 
4 | Cc1cc(/C=C/C(=O)CC(=O)/C=C/c2ccc(OCCN)c(C)c2)ccc1OCCN [Curcumin 01e hydrochloride] | > 5 | > 4 | > 5 | > 7 | 
5 | COc1cc(/C=C/C(=O)CC(=O)/C=C/c2ccc(OCCOCCN)c(OC)c2)ccc1OCCOCCN [Curcumin 02 hydrochloride] | > 2 | > 6 | > 4 | > 7 | 
6 | NCCCOc1ccc(/C=C/C(=O)CC(=O)/C=C/c2ccc(OCCCN)c(OCc3ccccc3)c2)cc1OCc1ccccc1 [Curcumin 04 hydrochloride] | > 1 | > 3 | > 3 | > 4 | 
7 | NCCOc1cc(/C=C/C(=O)CC(=O)/C=C/c2cc(OCCN)c(OCCN)c(OCCN)c2)cc(OCCN)c1OCCN [Curcumin 05 hydrochloride] | > 4 | > 7 | > 4 | > 6 | 
8 | NCCOc1cc(/C=C/C(=O)CC(=O)/C=C/c2ccc(OCCOCCOCCO)c(OCCN)c2)ccc1OCCOCCOCCO [Curcumin 08 hydrochloride] |  | ~1 |  | > 1 | 
9 | COc1cc(/C=C/C(=O)C2CCC/C(=C\c3ccc(OCCN)c(OC)c3)C2=O)ccc1OCCN (centres unmarked) [Curcumin 09b hydrochloride] |  | > 1 |  | > 2 | 
10 | COc1cc(/C=C/C(=O)CC(=O)/C=C/c2ccc(OCCC[N+](C)(C)C)c(OC)c2)ccc1OCCC[N+](C)(C)C [Curcumin 10a hydrochloride, 3,3′-(4,4′-((1E,6E)-3,5-dioxohepta-1,6-diene-1,7-diyl)bis(2-methoxy-4,1-phenylene))bis(oxy)bis(N,N,N-trimethylpropan-1-aminium) chloride] |  |  |  |  | log reduction at 10 µM (5 min): > 1; log reduction at 50 µM (5 min): > 5; log reduction at 10 µM (25 min): > 1; log reduction at 50 µM (25 min): > 5
11 | COc1cc(/C=C/C(=O)CC(=O)/C=C/c2ccc(OCCNC(=N)N)c(OC)c2)ccc1OCCNC(=N)N [Curcumin 10b hydrochloride] | > 5 | > 7 | > 4 | > 6 | 
12 | COc1cc(/C=C/C(=O)CC(=O)/C=C/c2ccc(OCCC[n+]3ccccc3)c(OC)c2)ccc1OCCC[n+]1ccccc1 [Curcumin 10c hydrochloride, 1,1′-(3,3′-(4,4′-((1E,6E)-3,5-dioxohepta-1,6-diene-1,7-diyl)bis(2-methoxy-4,1-phenylene))bis(oxy)bis(propane-3,1-diyl))dipyridinium chloride] | > 4 | > 7 | > 5 | > 7 | 
13 | COc1ccc(/C=C/C(=O)CC(=O)/C=C/c2ccc(OCCN)c(OC)c2)cc1OC [Curcumin 11b hydrochloride] | ~1 | ~3 | > 1 | > 3 | 
14 | NCCOc1ccc(/C=C/C(=O)CC(=O)/C=C/c2ccc(OCCN)c3ccccc23)c2ccccc12 [Curcumin 12a hydrochloride] | > 1 | > 6 | > 4 | > 6 | 
15 | COc1ccc(/C=C/C(=O)CC(=O)/C=C/c2ccc(OCCN)c(OCCN)c2)cc1OCCN [Curcumin 13b hydrochloride] | > 7 | > 7 | > 7 | > 7 | 
16 | COc1cc(/C(C)=C(\C)C(=O)CC(=O)/C(C)=C(\C)c2ccc(OCCN)c(OC)c2)ccc1OCCN [Curcumin 14b hydrochloride] |  |  |  | > 1 | 
17 | (1E,6E)-1,7- bis(4-(2- aminoethoxy)-3- methoxy- phenyl)hepta-1,6- diene-3,5-dione hydrochloride- zinc complex [Curcumin 01a zinc complex] |  |  |  |  | Effectiveness against E. Coli: Reduction in CFU in log10 at concentration of 10 μM [5]: >3* log10; Effectiveness against E. Coli: Reduction in CFU in log10 at concentration of 10 μM [6]: >2 log10; Effectiveness against E. Coli: Reduction in CFU in log10 at concentration of 50 μM [7]: >5* log10; Effectiveness against E. Coli: Reduction in CFU in log10 at concentration of 50 μM [8]: >5 log10
18 | Bis[(1E,6E)-1,7- bis(4-(2- aminoethoxy)-3- methoxy- phenyl)hepta-1,6- diene-3,5-dione hydrochloride] boron complex [Roseo-curcumin 01a hydrochloride] |  |  |  |  | Effectiveness against E. Coli: Reduction in CFU in log10 at concentration of 10 μM [5]: >5* log10; Effectiveness against E. Coli: Reduction in CFU in log10 at concentration of 10 μM [6]: >5 log10; Effectiveness against E. Coli: Reduction in CFU in log10 at concentration of 50 μM [7]: >7* log10; Effectiveness against E. Coli: Reduction in CFU in log10 at concentration of 50 μM [8]: >6 log10
